Numbered stars: 1 amine (or outer) side, 2 acyl side, 3 side chain; on linkers, the order of the positions; unused ones are H or OH. Bridge positions count the residues as written; N and C are the ends. Square brackets hold non-standard residues; d marks the D form. Peptide text beside a SMILES is read from it. I, II: the chains in the order shown. Phe(2-CONH2) = NC(=O)c1ccccc1C[C@H](N)C(=O)O; Bip = N[C@@H](Cc1ccc(-c2ccccc2)cc1)C(=O)O; 1Nal = N[C@@H](Cc1cccc2ccccc12)C(=O)O; 2Nal = N[C@@H](Cc1ccc2ccccc2c1)C(=O)O; Diglycolyl = O=C(COCC(=O)[*:2])[*:1]; NMeR = CN[C@@H](CCCNC(=N)N)C(=O)O; Tic = O=C(O)[C@@H]1Cc2ccccc2CN1; β3hE = N[C@@H](CCC(=O)O)CC(=O)O; Cha = N[C@@H](CC1CCCCC1)C(=O)O; Pen = CC(C)(S)[C@H](N)C(=O)O; Dab = NCC[C@H](N)C(=O)O
These compounds were tested against α4β7 (Homo sapiens, UniProt P13612+P26010) (assay: α4β7-MAdCAM Cell Adhesion Assay (RPMI 8866 human cells)). Conditions: Table 3-B, Potency (α4β7); range classes; read-out: α4β7 cell (Hu) IC50.
Assay type: cell-based
Parameters: host or cells: RPMI 8866 human B lymphoblastoid cells
Outline: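 Adhesion read-out: MTT absorbance at 570 nm minus no-cell wells, after three washes. Plates coated with rh MAdCAM-1/Fc received peptide dilutions plus 200,000 RPMI 8866 cells in Mn2+ (1 mM)-supplemented DMEM, 0.1% BSA, HEPES pH 7, incubated 30-45 min, 37 °C.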

Sequence of α4β7 (P13612 34-1032): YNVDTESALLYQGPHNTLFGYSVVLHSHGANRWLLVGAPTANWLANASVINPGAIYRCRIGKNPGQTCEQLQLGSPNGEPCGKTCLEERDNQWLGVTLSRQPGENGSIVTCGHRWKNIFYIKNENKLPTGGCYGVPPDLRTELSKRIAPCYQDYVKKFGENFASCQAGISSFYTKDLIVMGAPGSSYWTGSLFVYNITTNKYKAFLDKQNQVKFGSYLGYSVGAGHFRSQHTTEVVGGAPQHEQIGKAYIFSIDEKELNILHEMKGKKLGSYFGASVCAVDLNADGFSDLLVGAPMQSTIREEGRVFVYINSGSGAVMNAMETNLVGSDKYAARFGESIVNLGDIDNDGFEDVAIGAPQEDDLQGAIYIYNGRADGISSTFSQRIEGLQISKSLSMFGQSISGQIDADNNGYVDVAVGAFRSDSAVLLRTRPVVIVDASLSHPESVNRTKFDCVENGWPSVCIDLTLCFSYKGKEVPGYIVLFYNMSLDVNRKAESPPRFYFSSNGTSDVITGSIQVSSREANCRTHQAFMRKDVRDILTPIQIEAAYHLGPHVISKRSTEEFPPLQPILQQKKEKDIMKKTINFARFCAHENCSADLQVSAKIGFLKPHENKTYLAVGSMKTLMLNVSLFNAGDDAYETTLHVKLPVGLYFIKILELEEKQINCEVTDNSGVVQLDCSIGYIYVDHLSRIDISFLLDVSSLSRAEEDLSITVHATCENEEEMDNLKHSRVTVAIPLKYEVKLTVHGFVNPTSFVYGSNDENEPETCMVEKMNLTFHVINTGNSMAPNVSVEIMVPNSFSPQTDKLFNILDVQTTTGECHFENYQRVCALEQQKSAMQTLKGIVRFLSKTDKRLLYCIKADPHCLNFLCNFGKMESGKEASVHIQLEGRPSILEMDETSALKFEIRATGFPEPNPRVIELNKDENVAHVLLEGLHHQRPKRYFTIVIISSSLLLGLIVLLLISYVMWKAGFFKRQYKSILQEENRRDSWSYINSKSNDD
Sequence of α4β7 (P26010 20-798): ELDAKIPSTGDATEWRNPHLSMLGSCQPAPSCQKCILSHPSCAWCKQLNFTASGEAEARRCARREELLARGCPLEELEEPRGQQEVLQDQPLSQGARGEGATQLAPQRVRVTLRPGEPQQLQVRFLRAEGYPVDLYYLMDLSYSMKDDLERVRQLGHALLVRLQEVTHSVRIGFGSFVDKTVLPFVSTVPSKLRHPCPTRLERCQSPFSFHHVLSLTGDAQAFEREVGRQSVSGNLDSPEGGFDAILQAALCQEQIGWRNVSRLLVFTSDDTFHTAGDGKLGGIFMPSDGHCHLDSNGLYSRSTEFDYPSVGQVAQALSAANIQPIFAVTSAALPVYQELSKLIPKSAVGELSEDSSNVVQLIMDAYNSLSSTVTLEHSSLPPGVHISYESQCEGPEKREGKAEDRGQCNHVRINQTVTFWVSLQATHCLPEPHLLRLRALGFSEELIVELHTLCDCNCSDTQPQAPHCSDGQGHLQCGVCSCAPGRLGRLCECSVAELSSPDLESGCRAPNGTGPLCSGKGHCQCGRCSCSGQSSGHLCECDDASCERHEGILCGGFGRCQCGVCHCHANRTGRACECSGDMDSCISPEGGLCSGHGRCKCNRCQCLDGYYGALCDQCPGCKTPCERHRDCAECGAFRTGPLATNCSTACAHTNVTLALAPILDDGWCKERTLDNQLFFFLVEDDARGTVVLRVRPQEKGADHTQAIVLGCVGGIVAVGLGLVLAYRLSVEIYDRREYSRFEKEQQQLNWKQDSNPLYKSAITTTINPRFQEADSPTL

| Structure (SMILES) | IC50 [nM] |
| --- | --- |
| CC(=O)N[C@@H]1C(=O)N(C)[C@@H](CCCNC(=N)N)C(=O)N[C@@H](CO)C(=O)N[C@@H](CC(=O)O)C(=O)N[C@@H]([C@@H](C)O)C(=O)N[C@@H](CC(C)C)C(=O)N[C@H](C(=O)N[C@@H](Cc2c[nH]c3ccccc23)C(=O)N2CCC[C@@H]2C(=O)N[C@@H](CCCCNC(=O)COCC(=O)NCCCC[C@H](NC(=O)[C@H]2CCCN2C(=O)[C@H](Cc2c[nH]c3ccccc23)NC(=O)[C@H]2NC(=O)[C@H](CC(C)C)NC(=O)[C@H]([C@@H](C)O)NC(=O)[C@H](CC(=O)O)NC(=O)[C@H](CO)NC(=O)[C@H](CCCNC(=N)N)N(C)C(=O)[C@@H](NC(C)=O)C(C)(C)SSC2(C)C)C(N)=O)C(N)=O)C(C)(C)SSC1(C)C [compound 96] (I: Ac-[Pen][NMeR]SDTL[Pen]W[dP]K-NH2 / II: Ac-[Pen][NMeR]SDTL[Pen]W[dP]K-NH2; disulfide I:1-I:7, II:1-II:7; linker I:10-II:10 via Diglycolyl) | 50 to 100 |
| CC(=O)N[C@@H]1C(=O)N(C)[C@@H](CCCNC(=N)N)C(=O)N[C@@H](CO)C(=O)N[C@@H](CC(=O)O)C(=O)N[C@@H](CC2CCCCC2)C(=O)N[C@@H](CC(C)C)C(=O)N[C@H](C(=O)N[C@@H](Cc2ccc3ccccc3c2)C(=O)N[C@H](CCC(=O)O)C(N)=O)C(C)(C)SSC1(C)C [compound 158] (Ac-[Pen][NMeR]SD[Cha]L[Pen][2Nal][dE]-NH2; disulfide 1-7) | 1000 to 10000 |
| CC(=O)N[C@@H]1C(=O)N(C)[C@@H](CCCNC(=N)N)C(=O)N[C@@H](CO)C(=O)N[C@@H](CC(=O)O)C(=O)N[C@@H]([C@@H](C)O)C(=O)N[C@@H](CC(C)C)C(=O)N[C@H](C(=O)N[C@@H](Cc2ccc(-c3ccccc3)cc2)C(=O)N[C@@H](CCC(=O)O)CC(=O)N[C@H](CCCCNC(=O)COCC(=O)NCCCC[C@@H](NC(=O)C[C@H](CCC(=O)O)NC(=O)[C@H](Cc2ccc(-c3ccccc3)cc2)NC(=O)[C@H]2NC(=O)[C@H](CC(C)C)NC(=O)[C@H]([C@@H](C)O)NC(=O)[C@H](CC(=O)O)NC(=O)[C@H](CO)NC(=O)[C@H](CCCNC(=N)N)N(C)C(=O)[C@@H](NC(C)=O)C(C)(C)SSC2(C)C)C(N)=O)C(N)=O)C(C)(C)SSC1(C)C [compound 135] (I: Ac-[Pen][NMeR]SDTL[Pen][Bip][β3hE][dK]-NH2 / II: Ac-[Pen][NMeR]SDTL[Pen][Bip][β3hE][dK]-NH2; disulfide I:1-I:7, II:1-II:7; linker I:10-II:10 via Diglycolyl) | < 10 |
| CC(=O)N[C@@H]1C(=O)N(C)[C@@H](CCCNC(=N)N)C(=O)N[C@@H](CO)C(=O)N[C@@H](CC(=O)O)C(=O)N[C@@H]([C@@H](C)O)C(=O)N[C@@H](CC(C)C)C(=O)N[C@H](C(=O)N[C@@H](Cc2c[nH]cn2)C(=O)N[C@H](CCC(=O)O)C(=O)N[C@H](CCCCNC(=O)COCC(=O)NCCCC[C@@H](NC(=O)[C@@H](CCC(=O)O)NC(=O)[C@H](Cc2c[nH]cn2)NC(=O)[C@H]2NC(=O)[C@H](CC(C)C)NC(=O)[C@H]([C@@H](C)O)NC(=O)[C@H](CC(=O)O)NC(=O)[C@H](CO)NC(=O)[C@H](CCCNC(=N)N)N(C)C(=O)[C@@H](NC(C)=O)C(C)(C)SSC2(C)C)C(N)=O)C(N)=O)C(C)(C)SSC1(C)C [compound 124] (I: Ac-[Pen][NMeR]SDTL[Pen]H[dE][dK]-NH2 / II: Ac-[Pen][NMeR]SDTL[Pen]H[dE][dK]-NH2; disulfide I:1-I:7, II:1-II:7; linker I:10-II:10 via Diglycolyl) | 100 to 500 |
| CC(=O)N[C@@H]1C(=O)N(C)[C@@H](CCCNC(=N)N)C(=O)N[C@@H](CO)C(=O)N[C@@H](CC(=O)O)C(=O)N[C@@H]([C@@H](C)O)C(=O)N[C@@H](CC(C)C)C(=O)N[C@H](C(=O)N[C@@H](Cc2cccc3ccccc23)C(=O)N2Cc3ccccc3C[C@H]2C(=O)N[C@H](CCCCNC(=O)COCC(=O)NCCCC[C@@H](NC(=O)[C@@H]2Cc3ccccc3CN2C(=O)[C@H](Cc2cccc3ccccc23)NC(=O)[C@H]2NC(=O)[C@H](CC(C)C)NC(=O)[C@H]([C@@H](C)O)NC(=O)[C@H](CC(=O)O)NC(=O)[C@H](CO)NC(=O)[C@H](CCCNC(=N)N)N(C)C(=O)[C@@H](NC(C)=O)C(C)(C)SSC2(C)C)C(N)=O)C(N)=O)C(C)(C)SSC1(C)C [compound 115] (I: Ac-[Pen][NMeR]SDTL[Pen][1Nal][Tic][dK]-NH2 / II: Ac-[Pen][NMeR]SDTL[Pen][1Nal][Tic][dK]-NH2; disulfide I:1-I:7, II:1-II:7; linker I:10-II:10 via Diglycolyl) | 100 to 500 |
| CC(=O)N[C@@H]1C(=O)N(C)[C@@H](CCCNC(=N)N)C(=O)N[C@@H](CO)C(=O)N[C@@H](CC(=O)O)C(=O)N[C@@H]([C@@H](C)O)C(=O)N[C@@H](CC(C)C)C(=O)N[C@H](C(=O)N[C@@H](Cc2ccccc2C(N)=O)C(=O)N[C@H](CCC(=O)O)C(=O)N[C@H](CCCCNC(=O)COCC(=O)NCCCC[C@@H](NC(=O)[C@@H](CCC(=O)O)NC(=O)[C@H](Cc2ccccc2C(N)=O)NC(=O)[C@H]2NC(=O)[C@H](CC(C)C)NC(=O)[C@H]([C@@H](C)O)NC(=O)[C@H](CC(=O)O)NC(=O)[C@H](CO)NC(=O)[C@H](CCCNC(=N)N)N(C)C(=O)[C@@H](NC(C)=O)C(C)(C)SSC2(C)C)C(N)=O)C(N)=O)C(C)(C)SSC1(C)C [compound 98] (I: Ac-[Pen][NMeR]SDTL[Pen][Phe(2-CONH2)][dE][dK]-NH2 / II: Ac-[Pen][NMeR]SDTL[Pen][Phe(2-CONH2)][dE][dK]-NH2; disulfide I:1-I:7, II:1-II:7; linker I:10-II:10 via Diglycolyl) | 50 to 100 |
| CC(=O)N[C@@H]1C(=O)N(C)[C@@H](CCCNC(=N)N)C(=O)N[C@@H](CO)C(=O)N[C@@H](CC(=O)O)C(=O)N[C@@H]([C@@H](C)O)C(=O)N[C@@H](CC(C)C)C(=O)N[C@H](C(=O)N[C@@H](Cc2c[nH]c3ccccc23)C(=O)N[C@@H](CCC(=O)O)C(=O)N[C@@H](CCN)C(N)=O)C(C)(C)SSC1(C)C [compound 61] (Ac-[Pen][NMeR]SDTL[Pen]WE[Dab]-NH2; disulfide 1-7) | 1000 to 10000 |
| CC(=O)N[C@@H]1C(=O)N(C)[C@@H](CCCNC(=N)N)C(=O)N[C@@H](CO)C(=O)N[C@@H](CC(=O)O)C(=O)N[C@@H]([C@@H](C)O)C(=O)N[C@@H](CC(C)C)C(=O)N[C@H](C(=O)N[C@@H](Cc2ccc(O)cc2)C(=O)N[C@H](CCC(=O)O)C(=O)N[C@H](CCCCNC(=O)COCC(=O)NCCCC[C@@H](NC(=O)[C@@H](CCC(=O)O)NC(=O)[C@H](Cc2ccc(O)cc2)NC(=O)[C@H]2NC(=O)[C@H](CC(C)C)NC(=O)[C@H]([C@@H](C)O)NC(=O)[C@H](CC(=O)O)NC(=O)[C@H](CO)NC(=O)[C@H](CCCNC(=N)N)N(C)C(=O)[C@@H](NC(C)=O)C(C)(C)SSC2(C)C)C(N)=O)C(N)=O)C(C)(C)SSC1(C)C [compound 123] (I: Ac-[Pen][NMeR]SDTL[Pen]Y[dE][dK]-NH2 / II: Ac-[Pen][NMeR]SDTL[Pen]Y[dE][dK]-NH2; disulfide I:1-I:7, II:1-II:7; linker I:10-II:10 via Diglycolyl) | 50 to 100 |

Source: patent US9809623B2, “α4β7 peptide monomer and dimer antagonists” (Protagonist Therapeutics, Inc., priority 2014, dated 2017)
